“And” between values parts separate entries of the source, which are not always exact repeats. Identical values can stand only once. Inconclusive results and toxic doses are left out. How the source made its calls: active means survival T/C of 150% or more; inactive means T/C below 125% in these data.
Test system: CD2F1 mice, L1210 leukemia ip, survival T/C
Assay: NCI In Vivo Anticancer Drug Screen. Data for tumor model L1210 Leukemia (intraperitoneal) in CD2F1 (CDF1) mice
Settings: higher = longer survival
How it was run: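 Each value reflects a quotient of treated over vehicle control outcomes in mice with a transplanted tumor.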

[1] = endpoint: mean survival time, dose: 25.0 mg/kg/injection, schedule: Q01DX009 (ip), vehicle: saline with Tween-80
[2] = endpoint: mean survival time, dose: 50.0 mg/kg/injection, schedule: Q01DX009 (ip), vehicle: saline with Tween-80
[3] = endpoint: mean survival time, dose: 100.0 mg/kg/injection, schedule: Q01DX001 (ip), vehicle: saline with Tween-80
[4] = endpoint: mean survival time, dose: 100.0 mg/kg/injection, schedule: Q04DX003 (ip), vehicle: saline with Tween-80
[5] = endpoint: mean survival time, dose: 200.0 mg/kg/injection, schedule: Q01DX001 (ip), vehicle: saline with Tween-80
[6] = endpoint: mean survival time, dose: 200.0 mg/kg/injection, schedule: Q04DX003 (ip), vehicle: saline with Tween-80
[7] = endpoint: mean survival time, dose: 400.0 mg/kg/injection, schedule: Q01DX001 (ip), vehicle: saline with Tween-80

Measured: T/C

NP(=O)(Oc1ccc([N+](=O)[O-])cc1)Oc1ccc([N+](=O)[O-])cc1
inactive: endpoint: mean survival time, dose: 62.5 mg/kg/injection, schedule: Q01DX001 (ip), vehicle: other 97 % of control | endpoint: mean survival time, dose: 125.0 mg/kg/injection, schedule: Q01DX001 (ip), vehicle: other 93 % of control | endpoint: mean survival time, dose: 250.0 mg/kg/injection, schedule: Q01DX001 (ip), vehicle: other 97 % of control | endpoint: mean survival time, dose: 500.0 mg/kg/injection, schedule: Q01DX001 (ip), vehicle: other 86 % of control

Cc1c(CNc2ccc(C(=O)NC(CC(=O)O)CC(=O)O)cc2)ccc2nc(N)nc(N)c12
inactive: endpoint: mean survival time, dose: 0.5 mg/kg/injection, schedule: Q01DX009 (ip), vehicle: saline 118 % of control | endpoint: mean survival time, dose: 1.0 mg/kg/injection, schedule: Q01DX009 (ip), vehicle: saline 104 % of control
active: endpoint: mean survival time, dose: 0.25 mg/kg/injection, schedule: Q01DX009 (ip), vehicle: saline 171 % of control

O=C1C=C[C@H](O)[C@@]2(CO)O[C@@H]12
inactive: endpoint: median survival time, dose: 0.31 mg/kg/injection, schedule: Q01DX009 (ip), vehicle: saline with Tween-80 102 % of control | endpoint: median survival time, dose: 0.62 mg/kg/injection, schedule: Q01DX009 (ip), vehicle: saline with Tween-80 101 % of control | endpoint: median survival time, dose: 1.25 mg/kg/injection, schedule: Q01DX009 (ip), vehicle: saline with Tween-80 118 % of control and 110 % of control | endpoint: median survival time, dose: 2.5 mg/kg/injection, schedule: Q01DX009 (ip), vehicle: saline with Tween-80 121 % of control and 123 % of control | endpoint: median survival time, dose: 5.0 mg/kg/injection, schedule: Q01DX009 (ip), vehicle: saline with Tween-80 114 % of control | endpoint: median survival time, dose: 10.0 mg/kg/injection, schedule: Q01DX009 (ip), vehicle: saline with Tween-80 118 % of control

Oc1ccc(O)c2c1C1(Cl)C(Cl)=C(Cl)C2(Cl)C1(Cl)Cl
inactive: endpoint: mean survival time, dose: 100.0 mg/kg/injection, schedule: Q01DX009 (ip), vehicle: other 95 % of control | endpoint: mean survival time, dose: 200.0 mg/kg/injection, schedule: Q01DX009 (ip), vehicle: other 98 % of control | endpoint: mean survival time, dose: 400.0 mg/kg/injection, schedule: Q01DX009 (ip), vehicle: other 106 % of control

O=C(c1ccccc1[N+](=O)[O-])C(Br)C(Br)c1ccc(Cl)c(Cl)c1 (stereo not given)
inactive: [1] 87 % of control and 94 % of control | [2] 100 % of control | endpoint: mean survival time, dose: 50.0 mg/kg/injection, schedule: Q04DX003 (ip), vehicle: saline with Tween-80 90 % of control | [3] 107 % of control | endpoint: mean survival time, dose: 100.0 mg/kg/injection, schedule: Q04DX002 (ip), vehicle: saline with Tween-80 89 % of control and 100 % of control | [4] 87 % of control | [5] 95 % of control | endpoint: mean survival time, dose: 200.0 mg/kg/injection, schedule: Q04DX002 (ip), vehicle: saline with Tween-80 86 % of control and 96 % of control | [6] 90 % of control | endpoint: mean survival time, dose: 400.0 mg/kg/injection, schedule: Q04DX002 (ip), vehicle: saline with Tween-80 86 % of control and 90 % of control

COc1cc(N=Nc2ccc(C(=O)O)cc2)ccc1N(CCCl)CCCl
inactive: endpoint: mean survival time, dose: 25.0 mg/kg/injection, schedule: Q04DX003 (ip), vehicle: Klucel (hydroxypropylcellulose) (HPC) 106 % of control and 109 % of control | endpoint: mean survival time, dose: 50.0 mg/kg/injection, schedule: Q04DX003 (ip), vehicle: Klucel (hydroxypropylcellulose) (HPC) 106 % of control and 112 % of control | endpoint: mean survival time, dose: 100.0 mg/kg/injection, schedule: Q04DX003 (ip), vehicle: Klucel (hydroxypropylcellulose) (HPC) 113 % of control and 98 % of control

CC(=O)NC(C)(C)Cc1ccccc1
inactive: [3] 101 % of control | [5] 117 % of control | [7] 106 % of control

Cc1cn(C2CC3OP(O)(=S)OCC3O2)c(=O)[nH]c1=O (stereo not given)
inactive: endpoint: mean survival time, dose: 8.7 mg/kg/injection, schedule: Q01DX005 (ip), vehicle: water 101 % of control | endpoint: mean survival time, dose: 17.5 mg/kg/injection, schedule: Q01DX005 (ip), vehicle: water 102 % of control | endpoint: mean survival time, dose: 35.0 mg/kg/injection, schedule: Q01DX005 (ip), vehicle: water 101 % of control | endpoint: mean survival time, dose: 70.0 mg/kg/injection, schedule: Q01DX005 (ip), vehicle: water 104 % of control

CN(C)Cc1cc(CN(C)C)c(O)c(CN(C)C)c1
inactive: endpoint: mean survival time, dose: 100.0 mg/kg/injection, schedule: Q04DX003 (ip), vehicle: saline 107 % of control | endpoint: mean survival time, dose: 200.0 mg/kg/injection, schedule: Q04DX003 (ip), vehicle: saline 100 % of control

CN=C(N)c1ccc(N=C(N)c2ccc(C(N)=Nc3ccc(C(N)=NC)cc3)cc2)cc1
inactive: endpoint: median survival time, dose: 3.75 mg/kg/injection, schedule: Q08HX018 (ip), vehicle: water 117 % of control | endpoint: median survival time, dose: 10.0 mg/kg/injection, schedule: Q01DX001 (iv), vehicle: saline 95 % of control | endpoint: median survival time, dose: 10.0 micrograms per hour, schedule: Q#X X001 (iv), vehicle: saline 97 % of control

CCOC(=O)C(Br)(C(=O)OCC)C(c1ccccc1)c1ccccc1
inactive: [4] 98 % of control | [6] 89 % of control | endpoint: mean survival time, dose: 400.0 mg/kg/injection, schedule: Q04DX003 (ip), vehicle: saline with Tween-80 93 % of control

CCOC(=O)Cc1cnc(SC)nc1Nc1ccc(C)cc1
inactive: [3] 97 % of control | [5] 108 % of control | [7] 106 % of control

CC[C@@H](C)[C@H]([C@H](CC(=O)N1CCC[C@@H]1[C@@H](OC)[C@H](C)C(=O)N[C@H](Cc1ccccc1)c1nccs1)OC)N(C)C(=O)[C@H](NC(=O)[C@@H](C(C)C)N(C)C)C(C)C
active: endpoint: median survival time, dose: 6.5 micrograms/kg/injection, schedule: Q01DX005 (ip), vehicle: saline + alcohol 160 % of control
inactive: endpoint: median survival time, dose: 1.63 micrograms/kg/injection, schedule: Q01DX005 (ip), vehicle: saline + alcohol 119 % of control | endpoint: median survival time, dose: 26.0 micrograms/kg/injection, schedule: Q01DX005 (ip), vehicle: saline + alcohol 86 % of control

CCOC(=O)Nc1cc(NC(C)/C(=N/O)c2ccccc2)c([N+](=O)[O-])c(N)n1 (stereo not given)
active: endpoint: median survival time, dose: 200.0 mg/kg/injection, schedule: Q01DX005 (ip), vehicle: Klucel (hydroxypropylcellulose) (HPC) 188 % of control
inactive: endpoint: median survival time, dose: 25.0 mg/kg/injection, schedule: Q01DX005 (ip), vehicle: Klucel (hydroxypropylcellulose) (HPC) 119 % of control and 98 % of control | endpoint: median survival time, dose: 30.0 mg/kg/injection, schedule: Q01DX005 (ip), vehicle: Klucel (hydroxypropylcellulose) (HPC) 98 % of control | endpoint: median survival time, dose: 40.0 mg/kg/injection, schedule: Q01DX005 (ip), vehicle: Klucel (hydroxypropylcellulose) (HPC) 119 % of control | endpoint: median survival time, dose: 60.0 mg/kg/injection, schedule: Q01DX005 (ip), vehicle: Klucel (hydroxypropylcellulose) (HPC) 110 % of control | endpoint: median survival time, dose: 120.0 mg/kg/injection, schedule: Q01DX005 (ip), vehicle: Klucel (hydroxypropylcellulose) (HPC) 122 % of control

CC(=O)Nc1ccc(/C=N/NC(=O)CNC(=O)Nc2cccc([N+](=O)[O-])c2)cc1
inactive: endpoint: mean survival time, dose: 12.5 mg/kg/injection, schedule: Q01DX009 (ip), vehicle: saline with Tween-80 87 % of control | [1] 91 % of control | [2] 91 % of control | endpoint: mean survival time, dose: 100.0 mg/kg/injection, schedule: Q01DX009 (ip), vehicle: saline with Tween-80 88 % of control
